Read-outs that look alike come from different tables or passages of the source.
Legend:
plasma protein = conditions: cited from earlier work
[1] = tested on: SAs from different species; conditions: CSA versus HSA
human serum albumin = conditions: previous study, cited from earlier work
serum albumin (SA) = conditions: after intravenous injection, in most of the cases; cited from earlier work

Compound: CC(C)c1cccc(C(C)C)c1O [PR, 2,6-Diisopropylphenol]
- % PPB (plasma protein binding) (plasma protein): 96–98%
- difference between UC50 values [1]: 0.07
- ΔGPBSA (human serum albumin; PR1): -23.44 kcal/mol
- ΔGPBSA (human serum albumin; PR2): -19.03 kcal/mol
- PR bound to SA (serum albumin (SA)): approximately 80%

From publication PMC7557242 (ACS Omega, 2020)
